Experimental data taken from the NIST ThermoML archive (doi:10.1021/je0302304).

Assay: xn = mol fraction of the nth substance listed
Settings: 101.32 kPa, Liquid

COCCOC [1,2-dimethoxyethane] + CCO
mass density [kg/m3]
Settings	288.15 K	298.15 K	308.15 K	318.15 K
x1 = 0.0045	794.5	786	777.3	768.5
x1 = 0.0086	795.2	786.6	777.9	769
x1 = 0.0125	795.8	787.1	778.4	769.6
x1 = 0.0165	796.4	787.7	779	770.1
x1 = 0.0205	797	788.3	779.6	770.7
x1 = 0.0305	798.5	789.8	781	772
x1 = 0.05	801.3	792.5	783.6	774.6
x1 = 0.1	807.9	799	790	780.7
x1 = 0.15	814.2	805	795.8	786.3
x1 = 0.2	819.9	810.6	801.2	791.5
x1 = 0.25	825.2	815.7	806.1	796.3
x1 = 0.3	830.1	820.5	810.7	800.7
x1 = 0.35	834.6	824.9	815	804.8
x1 = 0.4	838.8	829	818.9	808.7
x1 = 0.45	842.7	832.8	822.6	812.2
x1 = 0.5	846.4	836.3	826	815.5
x1 = 0.55	849.8	839.6	829.2	818.6
x1 = 0.6	853	842.7	832.1	821.5
x1 = 0.6499	856	845.5	834.9	824.1
x1 = 0.7	858.7	848.2	837.5	826.6
x1 = 0.7499	861.3	850.7	839.9	829
x1 = 0.7999	863.7	853.1	842.2	831.2
x1 = 0.85	866.1	855.4	844.5	833.4
x1 = 0.9	868.3	857.5	846.6	835.4
x1 = 0.9499	870.4	859.5	848.5	837.3
x1 = 1	872.4	861.5	850.4	839.2

COCCOCCOCCOCCOC [2,5,8,11,14-pentaoxapentadecane] + CCO
mass density [kg/m3]
Settings	288.15 K	298.15 K	308.15 K	318.15 K
x1 = 0.0045	797.9	789.4	780.7	771.9
x1 = 0.0085	801.4	792.9	784.2	775.3
x1 = 0.0125	804.8	796.3	787.6	778.7
x1 = 0.0165	808.2	799.6	790.9	782
x1 = 0.0205	811.5	802.9	794.2	785.3
x1 = 0.0305	819.5	810.8	802	793.1
x1 = 0.05	833.6	824.9	816.1	807.1
x1 = 0.1	864.1	855.1	846.2	837.1
x1 = 0.15	888	878.9	869.9	860.7
x1 = 0.2	907.3	898.1	889.1	879.9
x1 = 0.25	923.3	914.1	905	895.7
x1 = 0.3	936.6	927.4	918.2	908.9
x1 = 0.35	947.9	938.6	929.5	920.2
x1 = 0.4	957.6	948.3	939.2	929.8
x1 = 0.45	966	956.7	947.5	938.2
x1 = 0.5	973.4	964.1	954.9	945.5
x1 = 0.55	979.9	970.6	961.3	952
x1 = 0.6	985.7	976.3	967.1	957.8
x1 = 0.6499	990.9	981.5	972.3	963
x1 = 0.7	995.6	986.2	977	967.6
x1 = 0.7498	999.8	990.4	981.2	971.9
x1 = 0.7999	1003.6	994.2	985	975.6
x1 = 0.8499	1007	997.7	988.4	979.1
x1 = 0.8997	1010.2	1000.9	991.6	982.4
x1 = 0.9496	1013.2	1003.8	994.6	985.3
x1 = 1	1016	1006.6	997.4	988.1
